Test results as given in publication PMC12593965, “Determination of Retention Behavior and pK a Values of Some Phenothiazines with Green Chemistry Approach” (ACS Omega, 2025).
Read-outs that look alike come from different tables or passages of the source.

Key:
[1] = cited from earlier work
[2] = RPLC determination of sspKa in EtOH-water binary mixtures (green RPLC); assay type: physicochemical; details: standard deviation in parentheses
Method: (§1) The analysis of the compounds on the HPLC column was determined in binary mixtures of ACN–water and EtOH–water containing 50, 55, and 60% (v/v) organic solvents at varying pH values (5.5–11.5). Buffer compounds containing 30 mM o-H3PO4 and NH4Cl at the same concentration were used in the mobile phases according to the pH values at which the buffers were effective.
(§2) The pH value of the mobile phase was adjusted by adding a 1 M NaOH solution to the mobile phase containing o-H3PO4 and by adding concentrated NH3 solution to the mobile phase containing ammonium chloride. The pH values of the binary mixtures in this mobile phase were evaluated according to the International Union of Pure and Applied Chemistry (IUPAC) guideline, taking into account the reference pH values obtained from the National Institute of Standards and Technology (NIST). − KHP (0.05 mol/kg) was used as a reference standard for electrode calibration in hydroorganic mixtures. The pH value (pHx) of this hydroorganic mixture can be determined by eq . pHx=pHs+Es−Ex/(ln10)RT/F 1
(§3) Solutions of the investigated compounds in binary mixtures were prepared daily. Standard solutions at 100 μg/mL concentrations were prepared in the studied mobile phase. Fresh solutions were prepared daily and stored at +4 °C in the dark until analysis. For testing, a 20 μL sample was injected three times into the HPLC instrument. The average t R was calculated from these replicates, showing precision with a relative standard deviation (%RSD) of approximately 0.01.
(§4) This liquid chromatographic study was performed at 25 and 37 °C. Chromatographic determination of the compounds was performed on a Kinetex EVO C18 (Phenomenex, 150 × 4.6 mm ID, 5 μm) core–shell column at a constant flow rate of 1 mL/min. There are no data in the literature regarding the determination of the retention behavior of compounds by analysis with HPLC columns produced with the core–shell technique. Additionally, the theoretical plate number of the column being 2000 and above and the tailing factor being below 2 indicate optimum column performance and satisfactory peak symmetry.
(§5) The t R values of promethazine, promazine, and trimeprazine for the study on the HPLC column were determined by using the RPLC method at different pH values in binary mixtures. The s ^spK a values of the ionizable and molecular forms (BH^+, B) were calculated using the nonlinear regression program (NLREG).
(§6) The intrinsic t R (t RBH^+ , t RB) and s ^spK a values of the studied compounds were calculated in the NLREG program using the average t R values determined depending on the changing EtOH and ACN concentrations and pH values in the mobile phase. It is seen that the standard deviation values of the sigmoidal fitting parameters (t RBH^+ , t RB, and s ^spK a) given in Table are very small. Since good results were obtained by using the t R value directly, the k value was not used. Although the changes in s ^spK a values according to the solvent composition in the mobile phase used were different for each compound, the same type of sigmoidal behavior was obtained as in Figure . The s ^spK a of basic compounds decreases mainly due to electrostatic interactions that contribute to the pK a value. Since ACN (0.46) and EtOH (0.65) have lower relative polarity compared to water (1.00), the solute–solvent polar interaction decreases as the amount of organic solvent in the mobile phase increases. Therefore, the t R value increases as the pH value of the mobile phase increases, while the t R value decreases as the amount of organic solvents in the mobile phase increases. In the mobile phase rich in ACN (0.25 ≤ X ACN ≤ 0.33) and EtOH (0.26 ≤ X EtOH ≤ 0.35), preferential solvation with water exists, and this can explain the decrease in the s ^spK a values of the studied compounds when the amount of organic solvent in the mobile phase increases. ,

[3] = RPLC determination of sspKa in ACN-water binary mixtures (conventional RPLC); assay type: physicochemical; details: standard deviation in parentheses
Method: as §1, §2, §3, §4, §5, §6

[4] = Percent ionization of the basic functional group by Henderson-Hasselbach equation; assay type: physicochemical; details: from wwpKa at 37 °C (EtOH-water)
From the text: Drug molecules can ionize at different pH ranges, and the pK a value serves as a universal measure of ionization. […] Changing the ionic form of a drug can affect its action, absorption, and therapeutic efficacy depending on the pH of the medium. Therefore, evaluating the degree of ionization of the compounds selected in this study is crucial. Using the Henderson–Hasselbach equation, the percent ionization and pK a (at 50% ionization) of the basic functional group of each compound at different pH values were calculated (Figure S4). Since a green chemistry approach was preferred in this study, the w ^wpK a values at 37 °C, determined from data obtained from an EtOH-water binary mixture, were used in the calculation of the percentage ionization. […] At a pH value 2 pH units above the pK a, the basic compound is in its un-ionized form. It is known that the hydrophilic properties of compounds decrease as the alkyl chain length increases. According to the data in Table S2, the percentage ionization values increase as the alkyl chain length increases.

[5] = source not stated; cited from earlier work
[6] = Aqueous pKa (wwpKa) calculated from sspKa via X solvent - sspKa and 1/ε - sspKa linear relationships; assay type: physicochemical; details: for wwpKa, 1/εACN - sspKa approach / wwpKa, X ACN - sspKa approach: from ACN-water data; for wwpKa, 1/εEtOH - sspKa approach / wwpKa, X EtOH - sspKa approach: from EtOH-water data
Method: The w ^wpK a values of promethazine, promazine, and trimeprazine in a water medium were determined by evaluating the obtained s ^spK a values of the compounds with the X solvent – s ^spK a , and the reciprocal of the solvent’s dielectric constant (1/ε) – s ^spK a relationships.
In this study, the w ^wpK a values of the examined compounds were determined based on the mole fraction of solvent-s ^spK a (X solvent – s ^spK a) and 1/εsolvent – s ^spK a approaches. In the calculation using the solvent mole fraction, the intercept values of the equation obtained from the linear relationship between the organic solvent X solvent and s ^spK a give the w ^wpK a values of the compounds examined.
To confirm the computed w ^wpK a values, an alternative approach was employed. Within the scope of the study, the correlation between the inverse of the dielectric constant value of the organic solvent (1/ε) and the s ^spK a values of the compounds was utilized. Since the ε values depend on the temperature, these values were taken from Gagliardi et al. and Navarkhele and Navarkhele for the two temperatures under study. , In the obtained linear equations, ε values in the water environment were used for increasing temperatures, and w ^wpK a values for the compounds could be determined. There was a decrease in the dielectric constant with the decrease in solvent polarity.
Figure illustrates the linear relationship between the solvent’s macroscopic constant X solvent and s ^spK a values.

Structure (SMILES) | sspKa ([2]; 50% (v/v) EtOH-water, 25 °C) | sspKa ([2]; 50% (v/v) EtOH-water, 37 °C) | sspKa ([2]; 55% (v/v) EtOH-water, 25 °C) | sspKa ([2]; 55% (v/v) EtOH-water, 37 °C) | sspKa ([2]; 60% (v/v) EtOH-water, 25 °C) | sspKa ([2]; 60% (v/v) EtOH-water, 37 °C) | sspKa ([3]; 50% (v/v) ACN-water, 25 °C) | sspKa ([3]; 50% (v/v) ACN-water, 37 °C) | sspKa ([3]; 55% (v/v) ACN-water, 25 °C) | sspKa ([3]; 55% (v/v) ACN-water, 37 °C) | sspKa ([3]; 60% (v/v) ACN-water, 25 °C) | sspKa ([3]; 60% (v/v) ACN-water, 37 °C) | % Ionization value ([4]; pH 2.0) [%] | % Ionization value ([4]; pH 7.4) [%] | % Ionization value ([4]; pH 9.0) [%] | % Ionization value ([4]; pH 10.0) [%] | % Ionization value ([4]; pH 12.0) [%] | logP [5] | wwpKa, 1/εACN - sspKa approach ([6]; 25 °C) | wwpKa, X ACN - sspKa approach ([6]; 25 °C) | other results
CN(C)CCCN1c2ccccc2Sc2ccccc21 [promazine] | 9.185 (0.042) | 9.048 (0.024) | 8.978 (0.008) | 8.914 (0.053) | 8.808 (0.042) | 8.805 (0.066) | 9.265 (0.088) | 9.195 (0.036) | 9.096 (0.012) | 9.042 (0.082) | 8.867 (0.009) | 8.857 (0.082) | 100 | 99.635 | 87.269 | 40.670 | 0.681 | 3.75 | 10.361 | 10.468 | pKa, literature values ([1]; 37 °C): 9.11 ± 0.03; wwpKa, 1/εACN - sspKa approach ([6]; 37 °C): 10.120; wwpKa, X ACN - sspKa approach ([6]; 37 °C): 10.213; wwpKa, 1/εEtOH - sspKa approach ([6]; 25 °C): 10.302; wwpKa, X EtOH - sspKa approach ([6]; 25 °C): 10.407; wwpKa, 1/εEtOH - sspKa approach ([6]; 37 °C): 9.766; wwpKa, X EtOH - sspKa approach ([6]; 37 °C): 9.836
CC(CN1c2ccccc2Sc2ccccc21)N(C)C (stereo not shown) [promethazine] | 9.117 (0.011) ^a | 8.926 (0.082) | 8.999 (0.008) | 8.824 (0.009) | 8.900 (0.071) | 8.666 (0.031) | 9.167 (0.064) ^a | 9.108 (0.045) | 9.007 (0.064) | 8.947 (0.097) | 8.868 (0.075) | 8.806 (0.053) | 100 | 99.591 | 85.962 | 37.979 | 0.609 | 3.14 | 9.980 | 10.056 | wwpKa, 1/εACN - sspKa approach ([6]; 37 °C): 9.924; wwpKa, X ACN - sspKa approach ([6]; 37 °C): 10.006; wwpKa, 1/εEtOH - sspKa approach ([6]; 25 °C): 9.761; wwpKa, X EtOH - sspKa approach ([6]; 25 °C): 9.821; wwpKa, 1/εEtOH - sspKa approach ([6]; 37 °C): 9.716; wwpKa, X EtOH - sspKa approach ([6]; 37 °C): 9.787
CC(CN(C)C)CN1c2ccccc2Sc2ccccc21 (stereo not shown) [trimeprazine] | 9.388 (0.012) | 9.329 (0.034) | 9.278 (0.016) | 9.243 (0.091) | 9.167 (0.034) | 9.118 (0.045) | 9.643 (0.078) | 9.470 (0.073) | 9.527 (0.038) | 9.329 (0.050) | 9.425 (0.062) | 9.202 (0.047) | 100 | 99.765 | 91.410 | 51.554 | 1.053 | 4.11 | 10.134 | 10.268 | pKa, literature values ([1]; 25 °C, different methods (CE, potentiometry, UV-Vis)): 10.12; wwpKa, 1/εACN - sspKa approach ([6]; 37 °C): 10.112; wwpKa, 1/εEtOH - sspKa approach ([6]; 25 °C): 10.049; wwpKa, X EtOH - sspKa approach ([6]; 25 °C): 10.110; wwpKa, 1/εEtOH - sspKa approach ([6]; 37 °C): 9.968; wwpKa, X EtOH - sspKa approach ([6]; 37 °C): 10.027
